Measurements: ChEMBL document CHEMBL1201862, “PubChem BioAssay data set” (2004)
Active and inactive are the calls of the source.

What was measured:
[1] = biological target: T1, SUMO-activating enzyme (Homo sapiens, UniProt Q9UBT2); test: SUMOylation inhibitor hit validation, confirmation, SUMOylation inhibitor project, biochemical, AlphaScreen (AID 2018); assay type: functional
[2] = HIV-1 Env-mediated cell fusion inhibitors, dose response, CCR5-tropic Env (AID 2279); assay type: functional
[3] = biological target: T1, SUMO-activating enzyme; test: inhibitors of in vitro SUMOylation cascade, primary screen, biochemical, HTRF, uHTS (AID 2006); assay type: protein-complex assay
[4] = biological target: T2, Calpain-2 catalytic subunit (Sus scrofa, UniProt P43367); test: pig calpain II inhibitor potency, dose response, biochemical, fluorogenic peptide substrate (AID 1420); assay type: functional
T2 sequence (P43367 whole entry): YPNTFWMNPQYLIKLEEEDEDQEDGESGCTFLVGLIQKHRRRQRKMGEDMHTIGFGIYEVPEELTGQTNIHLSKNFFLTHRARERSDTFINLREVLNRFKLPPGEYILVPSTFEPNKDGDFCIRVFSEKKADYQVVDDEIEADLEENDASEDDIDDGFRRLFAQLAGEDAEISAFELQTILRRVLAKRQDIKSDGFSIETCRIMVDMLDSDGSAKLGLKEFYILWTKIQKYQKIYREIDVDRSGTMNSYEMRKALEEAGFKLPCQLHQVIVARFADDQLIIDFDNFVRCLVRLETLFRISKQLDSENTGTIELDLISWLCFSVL

[5] = biological target: Induced myeloid leukemia cell differentiation protein Mcl-1 (Homo sapiens, UniProt Q07820); assay type: functional
[6] = tested on: HeLa; test: Cytotoxicity counterscreen assay for transcriptional activators of heat shock protein 70 (Hsp70). [Related pubchem assays: 1203, 1252 ]; assay type: functional; conditions: Homo sapiens;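 also: cells exposed to compound for 16 hours before readout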
[7] = biological target: Bcl-2-like protein 10 (Homo sapiens, UniProt Q9HD36); test: Biochemical TR3 FP assay of Bcl-B inhibitor potency, EC50 (AID 1243); assay type: functional
[8] = biological target: T3, Alkaline phosphatase, tissue-nonspecific isozyme (Homo sapiens, UniProt P05186)
T3 sequence (P05186 whole entry): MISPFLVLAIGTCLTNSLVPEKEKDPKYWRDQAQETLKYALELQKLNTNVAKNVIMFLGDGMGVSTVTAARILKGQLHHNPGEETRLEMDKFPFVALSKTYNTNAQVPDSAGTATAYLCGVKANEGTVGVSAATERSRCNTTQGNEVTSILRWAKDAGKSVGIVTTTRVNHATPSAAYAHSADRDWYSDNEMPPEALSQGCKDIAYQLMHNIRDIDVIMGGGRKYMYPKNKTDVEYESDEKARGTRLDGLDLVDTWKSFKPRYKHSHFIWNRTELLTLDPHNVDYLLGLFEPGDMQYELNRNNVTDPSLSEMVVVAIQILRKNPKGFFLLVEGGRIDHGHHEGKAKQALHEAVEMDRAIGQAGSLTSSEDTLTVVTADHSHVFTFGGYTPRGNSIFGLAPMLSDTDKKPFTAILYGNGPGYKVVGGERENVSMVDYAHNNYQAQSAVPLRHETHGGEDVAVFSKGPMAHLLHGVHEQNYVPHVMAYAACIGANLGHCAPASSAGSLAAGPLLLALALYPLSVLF

[9] = biological target: Luciferin 4-monooxygenase (Photinus pyralis, UniProt P08659); test: Counter Screen for Luciferase-based Assay Positives. [Related pubchem assays: 620, 618, 411 ]
[10] = tested on: HT-1080; test: cytotoxicity in HT1080 fibrosarcoma cells, cell-based, fluorescence readout (AID 620); assay type: functional; conditions: Homo sapiens
[11] = biological target: Mothers against decapentaplegic homolog 3 (Homo sapiens, UniProt P84022); test: Smad3 binding inhibitors, lysate ELISA, dose response, cell lysate, secondary confirmation, chemiluminescent ELISA, HEK293 lysate (AID 1058); assay type: functional
[12] = inhibitors of firefly luciferase expression or activity, dose response, H4 neuroglioma cells, luminescence (AID 1990); assay type: functional, cell-based
[13] = tested on: BJ; test: cytotoxicity toward BJ-TERT fibroblasts, dose response, cell-based, RAS-independent, luminescence (AID 1933); assay type: functional; conditions: Homo sapiens
[14] = Luminescence Cell-Based Dose Response HTS to Identify Inhibitors of 5'UTR Stem-Loop Driven Prion Protein mRNA Translation in H4 Neuroglioblastoma Cells. [Related pubchem assays: 1827 (Project Summary), 1813 (Primary HTS)]; assay type: functional
[15] = tested on: Vero; test: host cell cytotoxicity of antiviral hits, dose response, cytotoxicity control for West Nile virus antiviral project, secondary assay (AID 1650); assay type: functional; conditions: Chlorocebus sabaeus
[16] = inhibitors of SNCA 5'UTR-driven reporter translation, confirmation, H4 neuroglioma cells, luminescence (AID 1988); assay type: functional, cell-based
[17] = tested on: BJ; test: cells; assay type: functional, cell-based; conditions: Homo sapiens
[18] = Luminescence-based counterscreen assay for KLF5 inhibitors: dose response cell-based high throughput screening assay to identify cytotoxic compounds using the IEC-6 intestinal epithelial cell line. [Related pubchem assays: 1700 (Primary screen.), 1834 (Confirmation screen.), 1858 (Summary AID.), 1905 (Counterscreen.)]; assay type: functional
[19] = tested on: BJ; test: cytotoxicity toward BJ-TERT-LT-ST fibroblasts, dose response, cell-based, RAS-independent, luminescence (AID 1935); assay type: functional; conditions: Homo sapiens;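 also: BJ fibroblasts immortalized with TERT plus LT and ST oncogenes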
[20] = cytotoxicity toward DRD oncogenic fibroblasts, dose response, cell-based, non-viral oncogenic, luminescence (AID 1934); assay type: functional; conditions: Homo sapiens
[21] = Luminescence Cell-Based Dose Retest to Confirm Inhibitors of Cancer Stem Cells. [Related pubchem assays (depositor defined):AID2717, AID2721]; assay type: functional, Homo sapiens
[22] = cytotoxicity in HEK-293T cells, dose response, cytotoxicity control for TCR NF-kB inhibitor project, luminescence, T-cell screen hits (AID 489026); assay type: functional, cell-based;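 also: cells exposed to compound about 14 hours before the viability readout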
[23] = tested on: Vero; test: cells; assay type: functional, cell-based; conditions: Chlorocebus sabaeus
[24] = tested on: BJ; test: cytotoxicity toward Ras-transformed BJeLR fibroblasts, dose response, cell-based, alamar blue fluorescence, cherrypicked samples (AID 2631); assay type: functional; conditions: Homo sapiens;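 also: confirmatory dose-response assay in RAS-dependent BJ fibroblasts engineered with TERT, LT and ST, with cytotoxicity read by fluorescence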
[25] = tested on: Vero; test: cells; assay type: functional; conditions: Chlorocebus sabaeus
[26] = biological target: Paired box protein Pax-8 (Homo sapiens, UniProt Q06710); test: inhibitors of PAX8-driven TPO luciferase reporter, dose response, RMG-I cells, cherry-pick (AID 687027); assay type: functional, cell-based;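 also: luciferase reporter driven by Pax8 target thyroperoxidase promoter measured by SteadyGlo luminescence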
Sequence of Paired box protein Pax-8 (Q06710 whole entry): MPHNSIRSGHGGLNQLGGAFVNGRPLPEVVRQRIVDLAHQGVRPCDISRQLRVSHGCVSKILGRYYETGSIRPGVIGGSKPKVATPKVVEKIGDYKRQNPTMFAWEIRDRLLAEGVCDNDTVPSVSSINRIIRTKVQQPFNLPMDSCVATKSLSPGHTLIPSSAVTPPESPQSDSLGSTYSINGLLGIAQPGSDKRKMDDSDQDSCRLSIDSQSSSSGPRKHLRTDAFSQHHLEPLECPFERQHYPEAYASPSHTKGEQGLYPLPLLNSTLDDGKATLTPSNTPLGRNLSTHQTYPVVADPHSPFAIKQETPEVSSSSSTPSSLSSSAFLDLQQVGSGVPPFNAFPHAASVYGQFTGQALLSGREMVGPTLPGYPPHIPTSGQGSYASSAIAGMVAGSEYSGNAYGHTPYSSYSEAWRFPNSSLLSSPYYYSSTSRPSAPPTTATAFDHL

T1 sequence (Q9UBE0 whole entry, the tested form may be a part): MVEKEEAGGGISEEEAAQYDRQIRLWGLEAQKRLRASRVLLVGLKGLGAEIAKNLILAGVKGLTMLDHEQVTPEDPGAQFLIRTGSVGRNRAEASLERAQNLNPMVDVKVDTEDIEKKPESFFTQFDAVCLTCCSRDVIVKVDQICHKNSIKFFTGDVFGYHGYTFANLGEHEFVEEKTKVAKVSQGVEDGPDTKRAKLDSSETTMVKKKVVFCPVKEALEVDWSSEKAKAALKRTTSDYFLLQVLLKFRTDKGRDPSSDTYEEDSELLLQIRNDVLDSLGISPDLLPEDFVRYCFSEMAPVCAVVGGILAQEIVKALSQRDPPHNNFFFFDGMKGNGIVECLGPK
T1 sequence (Q9UBT2 whole entry, the tested form may be a part): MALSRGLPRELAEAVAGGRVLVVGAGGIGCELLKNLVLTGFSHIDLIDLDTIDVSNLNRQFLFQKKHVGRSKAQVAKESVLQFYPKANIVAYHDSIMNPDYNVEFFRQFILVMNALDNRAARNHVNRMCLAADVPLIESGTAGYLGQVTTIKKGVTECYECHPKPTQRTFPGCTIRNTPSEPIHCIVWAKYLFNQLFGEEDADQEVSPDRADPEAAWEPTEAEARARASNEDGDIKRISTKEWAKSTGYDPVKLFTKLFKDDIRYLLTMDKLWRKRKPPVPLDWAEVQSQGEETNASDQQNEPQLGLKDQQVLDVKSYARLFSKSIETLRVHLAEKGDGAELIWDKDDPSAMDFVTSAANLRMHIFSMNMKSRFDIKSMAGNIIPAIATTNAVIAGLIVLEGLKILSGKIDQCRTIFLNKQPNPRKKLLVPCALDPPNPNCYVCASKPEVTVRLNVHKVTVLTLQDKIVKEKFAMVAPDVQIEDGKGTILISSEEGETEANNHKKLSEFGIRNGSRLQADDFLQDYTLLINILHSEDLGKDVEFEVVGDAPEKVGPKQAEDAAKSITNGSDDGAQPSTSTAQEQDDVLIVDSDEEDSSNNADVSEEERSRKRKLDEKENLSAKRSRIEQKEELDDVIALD
Sequence of Induced myeloid leukemia cell differentiation protein Mcl-1 (Q07820 whole entry): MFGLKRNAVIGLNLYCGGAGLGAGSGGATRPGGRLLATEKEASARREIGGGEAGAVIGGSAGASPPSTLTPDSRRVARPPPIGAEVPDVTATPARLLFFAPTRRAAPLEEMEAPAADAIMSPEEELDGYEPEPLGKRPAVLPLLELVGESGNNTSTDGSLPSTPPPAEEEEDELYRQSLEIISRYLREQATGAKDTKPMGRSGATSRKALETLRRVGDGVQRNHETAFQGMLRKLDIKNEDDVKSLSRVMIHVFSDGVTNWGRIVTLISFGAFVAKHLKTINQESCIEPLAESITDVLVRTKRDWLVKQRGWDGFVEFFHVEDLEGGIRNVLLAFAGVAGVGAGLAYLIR
Sequence of Mothers against decapentaplegic homolog 3 (P84022 whole entry): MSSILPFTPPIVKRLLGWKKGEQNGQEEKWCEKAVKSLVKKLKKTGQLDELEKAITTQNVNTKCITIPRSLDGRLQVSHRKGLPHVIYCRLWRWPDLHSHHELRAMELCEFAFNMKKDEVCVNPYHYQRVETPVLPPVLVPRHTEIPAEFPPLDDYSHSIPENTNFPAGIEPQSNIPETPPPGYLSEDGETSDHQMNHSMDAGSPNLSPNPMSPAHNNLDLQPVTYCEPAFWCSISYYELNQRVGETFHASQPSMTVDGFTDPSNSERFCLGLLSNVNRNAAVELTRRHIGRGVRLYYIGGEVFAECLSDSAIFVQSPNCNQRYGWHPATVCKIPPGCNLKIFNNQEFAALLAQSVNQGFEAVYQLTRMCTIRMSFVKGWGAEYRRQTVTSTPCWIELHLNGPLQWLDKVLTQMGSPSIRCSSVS
Sequence of Luciferin 4-monooxygenase (P08659 whole entry): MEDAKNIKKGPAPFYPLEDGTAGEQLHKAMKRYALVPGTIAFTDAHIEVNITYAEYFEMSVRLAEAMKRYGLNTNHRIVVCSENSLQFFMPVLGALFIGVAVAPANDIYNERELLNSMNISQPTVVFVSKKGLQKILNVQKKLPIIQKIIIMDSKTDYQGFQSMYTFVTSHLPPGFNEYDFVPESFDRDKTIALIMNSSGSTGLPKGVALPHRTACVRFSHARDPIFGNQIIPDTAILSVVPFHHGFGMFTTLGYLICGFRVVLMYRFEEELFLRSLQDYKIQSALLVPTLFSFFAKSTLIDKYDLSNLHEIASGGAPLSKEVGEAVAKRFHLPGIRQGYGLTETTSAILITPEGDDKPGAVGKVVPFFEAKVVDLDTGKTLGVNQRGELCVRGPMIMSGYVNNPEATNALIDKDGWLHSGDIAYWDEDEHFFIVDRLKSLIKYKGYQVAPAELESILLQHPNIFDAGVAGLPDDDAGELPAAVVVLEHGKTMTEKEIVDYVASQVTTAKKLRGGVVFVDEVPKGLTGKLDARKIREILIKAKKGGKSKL
Sequence of Bcl-2-like protein 10 (Q9HD36 whole entry): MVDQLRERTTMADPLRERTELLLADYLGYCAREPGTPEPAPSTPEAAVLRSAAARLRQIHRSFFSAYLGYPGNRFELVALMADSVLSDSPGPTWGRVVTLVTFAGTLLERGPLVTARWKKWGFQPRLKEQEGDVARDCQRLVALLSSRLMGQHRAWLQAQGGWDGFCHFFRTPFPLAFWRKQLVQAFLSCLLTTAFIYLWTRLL

O=[N+]([O-])c1cccc(S(=O)(=O)Nc2nc3ccccc3nc2Nc2cccc(S(=O)(=O)N3CCCCC3)c2)c1
IC50 [1]: 4.59 µM (active)
IC50 [2]: 6.03 µM (active)
IC50 [3]: 20.1 µM (active)
IC50 [4]: 4.49 µM (not active)
IC50 [5]: 5.85 µM (active)

Cc1cc(C)nc(SCc2nnc(SCC(=O)Nc3cc(C(F)(F)F)ccc3Cl)o2)n1
CC50 [6]: > 99 µM (not active)

COc1ccc(OC)c(C=NNC(=O)c2cc[n+](CC(=O)c3ccccc3)cc2)c1
EC50 [7]: 1.35 µM (active)

COCCNC(=O)CCC(=O)NNc1nc2ccccc2c2nc(-c3ccccc3)nn12
EC50 [8]: 82 µM (not active)

CCc1nnc(NC(=O)c2ccc(OC)cc2OC)s1
EC50 [9]: > 100 µM (not active)
EC50 [10]: > 50 µM (not active)

COc1ccc(C(c2cc3c(cc2O)OCO3)N2CCCC2)cc1 (configuration not stated)
IC50 [11]: 14.6 µM (not active)

C[C@@H]1O[C@@H](O[C@H]2C[C@@H](O)[C@]3(CO)[C@H]4[C@H](O)C[C@]5(C)[C@@H](C6COC(=O)C6)CC[C@]5(O)[C@@H]4CC[C@]3(O)C2)[C@H](O)[C@H](O)[C@H]1O (some centres not stated)
EC50 [12]: 0.251 µM (active)
EC50 [13]: 0.405 µM (inconclusive)
EC50 [14]: 0.132 µM (active)
CC50 [15]: 1.91 µM (active)
EC50 [16]: 0.102 µM (active)
EC50 [17]: 4.77 µM (inconclusive)
IC50 [18]: > 39.8 µM (not active)
EC50 [19]: 2.78 µM (inconclusive)
EC50 [20]: 0.44 µM (active)
AC50 [21]: 1.28 µM (active)
AC50 ([21]; Homo sapiens): 1.46 µM (active)
IC50 [22]: > 80 µM (inactive)
IC50 [23]: < 0.05 µM (active)
EC50 [24]: 0.39 µM (active)
CC50 [25]: 4.84 µM (active)
AC50 [26]: 5.38 µM (active)
